Measurements taken from ChEMBL document CHEMBL1149933, “Synthesis and structure-activity relationship of C-3 benzoyloxymethyl cephalosporins exhibiting anti-MRSA activities” (Bioorg Med Chem Lett, 1997).
Values after ≈ are worked out from the molar mass of the structure shown.

Legend:
Staphylococcus aureus [1] = assay: Inhibitory effect against methicillin resistant Staphylococcus aureus (A 27218), expressed as minimum inhibitory concentration; assay type: functional
Staphylococcus aureus [2] = assay: Inhibitory effect against methicillin resistant Staphylococcus aureus (A 27223), expressed as minimum inhibitory concentration; assay type: functional
Staphylococcus aureus [3] = assay: Inhibitory effect against methicillin resistant Staphylococcus aureus (A 27217), expressed as minimum inhibitory concentration; assay type: functional
Staphylococcus aureus [4] = assay: Inhibitory effect against methicillin resistant Staphylococcus aureus (A 27621), expressed as minimum inhibitory concentration; assay type: functional
Staphylococcus aureus [5] = assay: Inhibitory effect against methicillin susceptible Staphylococcus aureus (A 15090), expressed as minimum inhibitory concentration; assay type: functional
[6] = In vitro half life in human plasma was determined; assay type: ADME, cell-free
Staphylococcus aureus [7] = assay: Minimum inhibitory concentration against MRSA (strain A 27223)
Mus musculus = assay: In vivo protective dose against MRSA (strain A 27223); assay type: functional; conditions: read-out: PD50

Row | Structure (SMILES) | MIC (Staphylococcus aureus [1]) | MIC (Staphylococcus aureus [2]) | MIC (Staphylococcus aureus [3]) | MIC (Staphylococcus aureus [4]) | MIC (Staphylococcus aureus [5]) | half-life [6] | MIC (Staphylococcus aureus [7]) | ED50 (Mus musculus)
1 | Cc1ccc(C(=O)OCC2=C(C(=O)O)N3C(=O)[C@@H](NC(=O)CSc4cc(Cl)ccc4Cl)C3SC2)cc1 (stereo not given in full) | 0.06 µg/mL (≈ 0.106 µM) | 0.5 µg/mL (≈ 0.881 µM) | 0.5 µg/mL (≈ 0.881 µM) | 0.25 µg/mL (≈ 0.441 µM) | 0.125 µg/mL (≈ 0.22 µM) | – | – | –
2 | O=C(CSc1cc(Cl)ccc1Cl)N[C@@H]1C(=O)N2C(C(=O)O)=C(COC(=O)c3cccnc3)CSC12 (stereo not given in full) | 2 µg/mL (≈ 3.61 µM) | 4 µg/mL (≈ 7.21 µM) | 2 µg/mL (≈ 3.61 µM) | 4 µg/mL (≈ 7.21 µM) | 0.125 µg/mL (≈ 0.225 µM) | – | – | –
3 | CC(=O)Nc1ccc(C(=O)OCC2=C(C(=O)O)N3C(=O)[C@@H](NC(=O)CSc4cc(Cl)ccc4Cl)C3SC2)cc1 (stereo not given in full) | 0.5 µg/mL (≈ 0.819 µM) | 1 µg/mL (≈ 1.64 µM) | 0.5 µg/mL (≈ 0.819 µM) | 1 µg/mL (≈ 1.64 µM) | 0.06 µg/mL (≈ 0.0983 µM) | – | – | –
4 | C[n+]1ccc(C(=O)OCC2=C(C(=O)[O-])N3C(=O)[C@@H](NC(=O)CSc4cc(Cl)ccc4Cl)C3SC2)cc1 (stereo not given in full) | 2 µg/mL (≈ 3.52 µM) | 32 µg/mL (≈ 56.3 µM) | 8 µg/mL (≈ 14.1 µM) | 32 µg/mL (≈ 56.3 µM) | 0.125 µg/mL (≈ 0.22 µM) | – | – | –
5 | C[n+]1cccc(C(=O)OCC2=C(C(=O)[O-])N3C(=O)[C@@H](NC(=O)CSc4cc(Cl)ccc4Cl)C3SC2)c1 (stereo not given in full) | 32 µg/mL (≈ 56.3 µM) | 64 µg/mL (≈ 113 µM) | 64 µg/mL (≈ 113 µM) | 64 µg/mL (≈ 113 µM) | 0.5 µg/mL (≈ 0.88 µM) | – | – | –
6 | COc1ccc(C(=O)OCC2=C(C(=O)O)N3C(=O)[C@@H](NC(=O)CSc4cc(Cl)ccc4Cl)C3SC2)cc1 (stereo not given in full) | 0.125 µg/mL (≈ 0.214 µM) | 0.5 µg/mL (≈ 0.857 µM) | 0.06 µg/mL (≈ 0.103 µM) | 0.5 µg/mL (≈ 0.857 µM) | 0.06 µg/mL (≈ 0.103 µM) | – | – | –
7 | N#Cc1ccc(C(=O)OCC2=C(C(=O)O)N3C(=O)[C@@H](NC(=O)CSc4cc(Cl)ccc4Cl)C3SC2)cc1 (stereo not given in full) | 0.125 µg/mL (≈ 0.216 µM) | 1 µg/mL (≈ 1.73 µM) | 0.125 µg/mL (≈ 0.216 µM) | 0.5 µg/mL (≈ 0.864 µM) | 0.03 µg/mL (≈ 0.0519 µM) | – | – | –
8 | CN(C)c1ccc(C(=O)OCC2=C(C(=O)O)N3C(=O)[C@@H](NC(=O)CSc4cc(Cl)ccc4Cl)C3SC2)cc1 (stereo not given in full) | 0.125 µg/mL (≈ 0.21 µM) | 0.25 µg/mL (≈ 0.419 µM) | 0.125 µg/mL (≈ 0.21 µM) | 0.25 µg/mL (≈ 0.419 µM) | 0.06 µg/mL (≈ 0.101 µM) | > 10 h | – | –
9 | O=C(CSc1cc(Cl)ccc1Cl)N[C@@H]1C(=O)N2C(C(=O)O)=C(COC(=O)c3ccncc3)CSC12 (stereo not given in full) | 0.5 µg/mL (≈ 0.902 µM) | 8 µg/mL (≈ 14.4 µM) | 1 µg/mL (≈ 1.8 µM) | 4 µg/mL (≈ 7.21 µM) | 0.06 µg/mL (≈ 0.108 µM) | – | – | –
10 | O=C(CSc1cc(Cl)ccc1Cl)N[C@@H]1C(=O)N2C(C(=O)O)=C(COC(=O)c3ccc(O)cc3)CSC12 (stereo not given in full) | 0.06 µg/mL (≈ 0.105 µM) | 0.25 µg/mL (≈ 0.439 µM) | 0.06 µg/mL (≈ 0.105 µM) | 0.5 µg/mL (≈ 0.878 µM) | 0.007 µg/mL (≈ 0.0123 µM) | – | – | –
11 | CC(=O)OCC1=C(C(=O)O)N2C(=O)[C@@H](NC(=O)CSc3cc(Cl)ccc3Cl)C2SC1 (stereo not given in full) | – | – | – | – | – | ~4.17 h | 2 µg/mL (≈ 4.07 µM) | 2 mg/kg
12 | CC(=O)Oc1ccc(C(=O)OCC2=C(C(=O)O)N3C(=O)[C@@H](NC(=O)CSc4cc(Cl)ccc4Cl)C3SC2)cc1 (stereo not given in full) | 0.06 µg/mL (≈ 0.0981 µM) | 0.125 µg/mL (≈ 0.204 µM) | 0.06 µg/mL (≈ 0.0981 µM) | 0.125 µg/mL (≈ 0.204 µM) | 0.007 µg/mL (≈ 0.0114 µM) | – | – | –
13 | O=C(CSc1cc(Cl)ccc1Cl)N[C@@H]1C(=O)N2C(C(=O)O)=C(COC(=O)c3ccccc3)CSC12 (stereo not given in full) | 0.5 µg/mL (≈ 0.903 µM) | 1 µg/mL (≈ 1.81 µM) | 1 µg/mL (≈ 1.81 µM) | 1 µg/mL (≈ 1.81 µM) | 0.06 µg/mL (≈ 0.108 µM) | > 10 h | – | –
14 | O=C(CSc1cc(Cl)ccc1Cl)N[C@@H]1C(=O)N2C(C(=O)O)=C(COC(=O)c3ccc([N+](=O)[O-])cc3)CSC12 (stereo not given in full) | 0.25 µg/mL (≈ 0.418 µM) | 2 µg/mL (≈ 3.34 µM) | 0.25 µg/mL (≈ 0.418 µM) | 2 µg/mL (≈ 3.34 µM) | 0.06 µg/mL (≈ 0.1 µM) | – | – | –
15 | CN[C@H](CC(C)C)C(=O)N[C@H]1C(=O)N[C@@H](CC(N)=O)C(=O)N[C@H]2C(=O)N[C@H]3C(=O)N[C@H](C(=O)N[C@H](C(=O)O)c4cc(O)cc(O)c4-c4cc3ccc4O)[C@H](O)c3ccc(c(Cl)c3)Oc3cc2cc(c3O[C@@H]2O[C@H](CO)[C@@H](O)[C@H](O)[C@H]2O[C@H]2C[C@](C)(N)[C@H](O)[C@H](C)O2)Oc2ccc(cc2Cl)[C@H]1O [VANCOMYCIN] | 0.25 µg/mL (≈ 0.173 µM) | 0.25 µg/mL (≈ 0.173 µM) | 0.25 µg/mL (≈ 0.173 µM) | 0.25 µg/mL (≈ 0.173 µM) | 0.25 µg/mL (≈ 0.173 µM) | – | – | –
